This assay concerns the target T1, prostanoid EP3 receptors (Homo sapiens, UniProt P43115).
T1 sequence (P43115 1-390): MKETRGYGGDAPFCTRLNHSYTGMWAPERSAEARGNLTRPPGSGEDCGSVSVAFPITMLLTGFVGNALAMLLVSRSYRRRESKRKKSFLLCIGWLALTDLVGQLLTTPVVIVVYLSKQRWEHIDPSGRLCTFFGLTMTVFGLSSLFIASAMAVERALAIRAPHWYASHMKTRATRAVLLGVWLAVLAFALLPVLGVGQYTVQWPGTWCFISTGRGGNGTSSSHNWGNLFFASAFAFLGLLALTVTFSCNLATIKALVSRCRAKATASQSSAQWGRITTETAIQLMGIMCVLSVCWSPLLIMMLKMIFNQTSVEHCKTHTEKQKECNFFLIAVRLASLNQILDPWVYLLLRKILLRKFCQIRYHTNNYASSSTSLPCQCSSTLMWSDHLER
Put plainly: binding on prostanoid EP3 receptors (method of Abramovitz et al.). To be noted: read-out: Activity (EP3 receptor binding, IC50 class). As to the method:
The compounds of the invention were assayed for their binding on prostanoid EP3 receptors according to the method of Abramovitz et al. [Bioch. Biophys.
What is called IC50 is the concentration needed to halve the response being measured. Take `CCOC(=O)C12CCCC(C=CC(=O)NS(=O)(=O)c3cc(F)c(F)cc3F)=C1N(Cc1ccc(Cl)cc1Cl)C(=O)C2` (centres unmarked) [Compound P344]: the half-inhibitory concentration (IC50) is less than 1 µM.
The same measure for `O=C(COc1cccc2c1N(Cc1ccc(Cl)cc1)C(=O)CO2)NS(=O)(=O)c1cccs1` [Compound P025]: more than 10 µM.
The same measure for `O=C(COc1cccc2[nH]cc(S(=O)(=O)c3ccc4ccccc4c3)c12)NS(=O)(=O)c1ccc(F)cc1` [Compound P236]: less than 1 µM; for `COc1ccc(S(=O)(=O)NC(=O)COc2cccc3[nH]cc(S(=O)(=O)c4ccc5ccccc5c4)c23)cc1` [Compound P193]: less than 1 µM.
In the case of `Cc1cn(CCC(=O)NS(=O)(=O)c2cc(Cl)c(Cl)s2)c2c(Oc3ccc(Cl)cc3Cl)cc(F)cc12` [Compound P384] it was less than 1 µM; in that of `CC1(C)C(=O)N(Cc2ccc(Cl)cc2Cl)c2c(C=CC(=O)NS(=O)(=O)c3cc(Cl)c(Cl)s3)cccc21` [Compound P131], less than 1 µM; in that of `CC12CCCC(C=CC(=O)NS(=O)(=O)c3ccc(F)cc3)=C1N(Cc1ccc(Cl)cc1Cl)C(=O)C2` (centres unmarked) [Compound P274], less than 1 µM.
Consider `CC1C(=O)N(Cc2ccc(Cl)cc2Cl)c2c(C=CC(=O)NS(=O)(=O)c3cccs3)cc(F)cc21` (centres unmarked) [Compound P065], for which the IC50 is less than 1 µM.
In the case of `Cc1ccc(C)c(Cn2ccc3cccc(C=CC(=O)NS(=O)(=O)c4cccs4)c32)c1` [Compound P008] it was less than 1 µM.
The same measure for `CC12CCCC(C=CC(=O)NS(=O)(=O)c3cc(F)c(F)cc3F)=C1N(Cc1ccc(Cl)cc1Cl)C(=O)C2` (centres unmarked) [Compound P275]: less than 1 µM; for `Cc1cn(Cc2ccc3ccccc3c2)c2c(/C=C/C(=O)NS(=O)(=O)c3cccs3)cccc12` [Compound P057]: less than 1 µM; for `CC12CCCC(C=CC(=O)NS(=O)(=O)c3cc(Cl)cc(Cl)c3)=C1N(Cc1ccc(Cl)cc1Cl)C(=O)C2` (centres unmarked) [Compound P280]: less than 1 µM.
The same measure for `CC1(O)C(=O)N(Cc2ccc(Cl)cc2Cl)c2c(C=CC(=O)NS(=O)(=O)c3cc(Cl)c(Cl)s3)cccc21` (centres unmarked) [Compound P133]: less than 1 µM; for `O=C(COc1cccc2c1N(Cc1ccc3nonc3c1)C(=O)CO2)NS(=O)(=O)c1cccs1` [Compound P042]: 1 to 10 µM.
On to `Cc1cn(Cc2ccc(Cl)cc2Cl)c2c(C=CC(=O)NS(=O)(=O)c3ccc(F)c(F)c3)cc(F)cc12` [Compound P335], for which the IC50 was less than 1 µM.
In the case of `O=C(COc1cccc2[nH]cc(Sc3ccc4ccccc4c3)c12)NS(=O)(=O)c1cc(F)c(F)cc1F` [Compound P226] it was less than 1 µM.
In the case of `Cn1cc(C=CC(=O)NS(=O)(=O)c2cc(F)c(F)cc2F)c2c(Oc3ccc(Cl)cc3F)cccc21` [Compound P337] it was less than 1 µM; in that of `O=C(C=Cc1cccc2c1C(Nc1ccc3ccccc3c1)C(=O)N2)NS(=O)(=O)c1cc(Cl)c(Cl)s1` (centres unmarked) [Compound P241], less than 1 µM; in that of `CC(=O)Nc1ccc(Sc2c[nH]c3cccc(OCC(=O)NS(=O)(=O)c4cc(Cl)c(Cl)s4)c23)cc1` [Compound P233], less than 1 µM.
The same measure for `O=C(C=Cc1cccc2c1N(Cc1ccc(Cl)cc1Cl)C(=O)C2=O)NS(=O)(=O)c1cc(Cl)c(Cl)s1` [Compound P113]: less than 1 µM.
Take `Cn1cc(C=CC(=O)NS(=O)(=O)c2cc(F)c(F)cc2F)c2c(Oc3ccc(Cl)c(F)c3)cccc21` [Compound P331]: the IC50 is less than 1 µM.
The same measure for `O=C(C=Cc1cccc2c1N(Cc1ccc(Cl)cc1Cl)C(=O)C2)NS(=O)(=O)c1cc(Cl)c(Cl)s1` [Compound P127]: less than 1 µM.
The same measure for `Cc1cn(Cc2cc(F)cc(F)c2)c2c(/C=C/C(=O)NS(=O)(=O)c3cc(Cl)c(Cl)s3)cccc12` [Compound P136]: less than 1 µM; for `O=C(C=Cc1cccc2ccn(Cc3ccc4ccccc4c3)c12)NS(=O)(=O)C(F)(F)F` [Compound P016]: less than 1 µM.
In the case of `CN1C(=O)C(S(=O)(=O)c2ccc3ccccc3c2)c2c(OCC(=O)NS(=O)(=O)c3cc(Cl)c(Cl)s3)cccc21` (centres unmarked) [Compound P248] it was less than 1 µM.
As to `Cn1cc(C=CC(=O)NS(=O)(=O)c2ccc(Cl)cc2Cl)c2c(Oc3ccc4ccccc4c3)cccc21` [Compound P356], the half-inhibitory concentration (IC50) was less than 1 µM.
In the case of `Cn1cc(C=CC(=O)NS(=O)(=O)c2cc(F)c(F)cc2F)c2c(Oc3ccc(F)c(F)c3)cccc21` [Compound P318], the IC50 is less than 1 µM.
The same measure for `O=C(C=Cc1cc(F)cc2c(C(=O)O)cn(Cc3ccc(Cl)cc3Cl)c12)NS(=O)(=O)c1cc(Cl)c(Cl)s1` [Compound P398]: less than 1 µM; for `Cc1cn(Cc2ccccc2-c2ccccc2)c2c(/C=C/C(=O)NS(=O)(=O)c3cc(Cl)c(Cl)s3)cccc12` [Compound P125]: less than 1 µM; for `Cn1cc(C=CC(=O)NS(=O)(=O)c2c(F)c(F)c(F)c(F)c2F)c2c(Oc3ccc4ccccc4c3)cccc21` [Compound P373]: less than 1 µM.
The same measure for `O=Cc1cn(Cc2ccc(Cl)cc2Cl)c2c(C=CC(=O)NS(=O)(=O)c3cccs3)cccc12` [Compound P069]: less than 1 µM; for `Cc1cn(Cc2cn3ccccc3n2)c2c(C=CC(=O)NS(=O)(=O)c3cc(F)c(F)cc3F)cc(F)cc12` [Compound P402]: less than 1 µM.
The same measure for `O=Cc1cn(Cc2ccc(Cl)cc2Cl)c2c(C=CC(=O)NS(=O)(=O)c3cc(Cl)c(Cl)s3)cc(F)cc12` [Compound P396]: less than 1 µM.
Turning to `COc1cccc(CN2C(=O)CC3(C)CCCC(C=CC(=O)NS(=O)(=O)c4cc(Cl)c(Cl)s4)=C23)c1` (centres unmarked) [Compound P260], the IC50 was less than 1 µM.
The same measure for `O=C(C=Cc1cc(F)cc2ccn(Cc3ccc4ccccc4c3)c12)NS(=O)(=O)c1cccs1` [Compound P060]: less than 1 µM; for `Cc1cn(Cc2ccc3ccccc3n2)c2c(/C=C/C(=O)NS(=O)(=O)c3cccs3)cccc12` [Compound P099]: less than 1 µM.
The same measure for `Cc1cn(CCC(=O)NS(=O)(=O)c2ccc(F)c(F)c2)c2c(Oc3ccc(Cl)c(Cl)c3)cc(F)cc12` [Compound P387]: less than 1 µM; for `O=C(COc1cccc2c1N(Cc1ccc(F)cc1)C(=O)CO2)NS(=O)(=O)c1cccs1` [Compound P024]: more than 10 µM.
In the case of `Cn1cc(C=CC(=O)NS(=O)(=O)c2cccc(F)c2)c2c(Oc3ccc4ccccc4c3)cccc21` [Compound P363] it was less than 1 µM; in that of `O=C(C=Cc1cccc2c1N(Cc1ccc3ccccc3c1)C(=O)C2)NS(=O)(=O)c1cc(Cl)c(Cl)s1` [Compound P179], less than 1 µM; in that of `O=C(C=Cc1cccc2c1N(Cc1ccc3ccccc3c1)C(=O)C2(F)F)NS(=O)(=O)c1cc(Cl)c(Cl)s1` [Compound P180], less than 1 µM.
Take `COc1ccc(Sc2c[nH]c3cccc(OCC(=O)NS(=O)(=O)c4cc(Cl)c(Cl)s4)c23)cc1` [Compound P200]: the IC50 was less than 1 µM.
In the case of `CC1C(=O)N(Cc2ccc(Cl)cc2Cl)c2c(C=CC(=O)NS(=O)(=O)c3cc(Cl)c(Cl)s3)cccc21` (centres unmarked) [Compound P107] it was less than 1 µM; in that of `COc1cccc(CN2C(=O)CC3(C)CCCC(C=CC(=O)NS(=O)(=O)c4cc(F)c(F)cc4F)=C23)c1` (centres unmarked) [Compound P306], less than 1 µM.
In the case of `CN1C(=O)C(C)(Cc2ccc3ccccc3c2)c2c(CCC(=O)NS(=O)(=O)c3cc(Cl)c(Cl)s3)cccc21` (centres unmarked) [Compound P156] it was less than 1 µM; in that of `Cn1cc(C=CC(=O)NS(=O)(=O)c2cc(F)c(F)cc2F)c2c(Oc3ccc(Cl)c(Cl)c3)cccc21` [Compound P292], less than 1 µM.
The same measure for `Cn1cc(C=CC(=O)NS(=O)(=O)c2ccc(F)c(F)c2)c2c(Oc3ccc(Cl)cc3)cccc21` [Compound P310]: less than 1 µM.
As for `Cc1cn(Cc2ccc(OC(F)(F)F)cc2)c2c(/C=C/C(=O)NS(=O)(=O)c3cc(Cl)c(Cl)s3)cccc12` [Compound P143], the concentration for half-maximal inhibition (IC50) is less than 1 µM.
On to `O=C(C=Cc1cccc2ccn(Cc3ccc(Cl)cc3Cl)c12)NS(=O)(=O)c1cc(Cl)c(Cl)s1` [Compound P129], for which the IC50 is less than 1 µM.
The same measure for `O=C(C=Cc1cccc2c1C(Nc1ccc(Cl)cc1Cl)C(=O)N2)NS(=O)(=O)c1cc(Cl)c(Cl)s1` (centres unmarked) [Compound P287]: less than 1 µM; for `O=C(C=Cc1cccc2c1N(Cc1ccc3ccccc3c1)C(=O)C21OCCO1)NS(=O)(=O)c1cccs1` [Compound P083]: less than 1 µM; for `Cc1cn(Cc2ccc3ccccc3c2)c2c(CCC(=O)NS(=O)(=O)c3cc(Cl)c(Cl)s3)cccc12` [Compound P073]: less than 1 µM.
The same measure for `O=C(COc1cccc2[nH]cc(Sc3ccc4ccccc4c3)c12)NS(=O)(=O)c1cccs1` [Compound P166]: less than 1 µM; for `O=C(COc1cccc2oc(=O)n(Cc3ccc4ccccc4c3)c12)NS(=O)(=O)C(F)(F)F` [Compound P048]: 1 to 10 µM; for `Cn1cc(CCC(=O)NS(=O)(=O)c2cc(F)c(F)cc2F)c2c(Oc3ccc4ccccc4c3)cccc21` [Compound P412]: less than 1 µM.
In the case of `O=C(COc1cccc2[nH]cc(S(=O)(=O)c3ccc(F)cc3Cl)c12)NS(=O)(=O)c1cc(Cl)c(Cl)s1` [Compound P234] it was less than 1 µM.

These data come from patent publication US7598397B2, “Sulfonamide peri-substituted bicyclics for occlusive artery disease” (deCODE genetics ehf, priority 2004, dated 2009).
